Tests used:
thromboxane B2 = assay: in vivo reduction of plasma thromboxane B2 in rats after ionophore A23187; settings: rat, oral dose of 5 mg/Kg or lower; ionophore A23187 0.5 mg/kg i.v. two hours after dosing
Protocol: (§1) The inhibition of the synthesis and the reduction of plasma levels of thromboxane is determined in vivo or administration to rats in the following manner (as adapted from the procedures described by Tai et al. in Anal. Biochem. 87:343, 1978 and by Salmon in Prostaglandins 15:383, 1978):
(§2) Rats are dosed with vehicle or test drug and injected intravenously with ionophore A23187 (0.5 mg/kg) two hours later. Blood is collected for analysis 2 minutes after the ionophore injection. A single aliquot of each plasma sample is assayed for thromboxane B2 and another aliquot for 6-keto-PGF1 α (the stable metabolite of prostacyclin, by radioimmunoassay.

thromboxane synthetase = biological target: T1, thromboxane synthetase (Homo sapiens, UniProt P24557); assay: in vitro inhibition of thromboxane synthetase (TxB2/PGF2 α+β ratio from 14C-arachidonic acid); type: biochemical; settings: 30 minutes incubation
T1 construct: crude microsomal preparation of thromboxane synthetase from lysed human platelets; from tissue; host or cells: lysed human platelets, crude microsomal preparation
T1 sequence (P24557 1-533): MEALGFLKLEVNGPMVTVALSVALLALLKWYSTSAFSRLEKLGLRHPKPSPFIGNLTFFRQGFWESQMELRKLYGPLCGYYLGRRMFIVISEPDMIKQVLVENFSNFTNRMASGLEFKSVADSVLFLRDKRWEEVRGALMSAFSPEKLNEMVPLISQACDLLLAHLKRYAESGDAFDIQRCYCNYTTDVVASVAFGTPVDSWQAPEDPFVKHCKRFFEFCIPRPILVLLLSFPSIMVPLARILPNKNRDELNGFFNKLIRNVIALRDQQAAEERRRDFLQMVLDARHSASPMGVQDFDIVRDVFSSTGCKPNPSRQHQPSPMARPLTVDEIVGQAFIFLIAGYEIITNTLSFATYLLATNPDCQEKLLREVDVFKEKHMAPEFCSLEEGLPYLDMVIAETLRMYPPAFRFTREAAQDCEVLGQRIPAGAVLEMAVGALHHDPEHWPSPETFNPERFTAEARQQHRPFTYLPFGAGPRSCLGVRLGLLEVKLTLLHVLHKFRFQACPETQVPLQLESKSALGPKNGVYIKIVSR
Protocol: Res. Comm. 74, 1432 (1977); the testing procedure is as follows:
^14 C-Arachidonic acid is incubated with an enzyme preparation consisting of solubilized and partially purified prostaglandin cyclo-oxygenase from sheep seminal vesicles and a crude microsomal preparation of thromboxane synthetase from lysed human platelets. The test compound (dissolved in buffer, or if necessary, in a small amount of ethanol) is added to the incubation medium. At the end of the incubation period (30 minutes), Prostaglandin E2 (PGE2) is reduced to a mixture of Prostaglandin F2 α and F2 β [PGF2 (α+β)] by addition of sodium borohydride. The radioactive products and excess substrate are extracted into ethyl acetate; the extract is evaporated to dryness; the residue is dissolved in acetone, spotted on thin-layer plates and chromatographed in the solvent system toluene: acetone: glacial acetic acid (100 volumes: 100 volumes: 3 volumes). The radioactive zones are located; those corresponding to Thromboxane B2 (TxB2) and PGF2 α+β are transferred to liquid scintillation vials and counted. The ratio of counts for TxB2 /PGF2 α+β is calculated for each concentration of test compound and IC50 values are determined graphically as the concentration of test compound at which the ratio of TxB2 /PGF2 α+β is reduced to 50% of the control value.

6-keto-PGF1 α = assay: in vivo plasma level of 6-keto-PGF1 α (prostacyclin metabolite) in rats after ionophore A23187; settings: rat; ionophore A23187 0.5 mg/kg i.v. two hours after dosing
Protocol: as §1, §2

Row | IC50 (thromboxane synthetase) | Structure (SMILES) | reduction of the plasma concentration of thromboxane B2 (thromboxane B2) | increase in the plasma level of the prostacyclin metabolite 6-keto-PGF1 α (6-keto-PGF1 α)
1 | ~10 nM | c1cc(CCCCc2nnn[nH]2)n2cncc2c1 [5-[4-(5-tetrazolyl)butyl]-imidazo[1,5-a]pyridine] | over 50% | significant increase
2 | ~300 nM | O=C(CCCCCc1cccc2cncn12)NO [5-[5-(hydroxycarbamoyl)pentyl]-imidazo[1,5-a]-pyridine] |  | 
3 | ~3 nM | O=C(O)CCCCCc1c(OCc2ccccc2)ccc2cncn12 [6-benzyloxy-5-(5-carboxypentyl)imidazo[1,5-a]pyridine] |  | 

Reference: US4470986A, “Certain imidazo (1,5-A) pyridine aliphatic carboxylic acid derivatives and their use as selective thromboxane inhibitors” (Ciba-Geigy Corporation, priority 1982, dated 1984)
